Laboratory results published in ChEMBL document CHEMBL3400015, “Tertiary amides of Salinomycin: A new group of antibacterial agents against Bacillus anthracis and methicillin-resistant Staphylococcus epidermidis” (Bioorg Med Chem Lett, 2015).
Values after ≈ are worked out from the molar mass of the structure shown.

Experiments:
[1] = test system: Staphylococcus aureus; experiment: Antimicrobial activity against Staphylococcus aureus NCTC 4163 after 18 hrs by twofold serial broth dilution method; assay type: functional; details: NCTC 4163, 18 h
[2] = test system: Staphylococcus aureus; experiment: Antimicrobial activity against Staphylococcus aureus ATCC 25923 after 18 hrs by twofold serial broth dilution method; assay type: functional; details: ATCC 25923, 18 h
[3] = test system: Staphylococcus aureus; experiment: Antimicrobial activity against Staphylococcus aureus […] after 18 hrs by twofold serial broth dilution method; assay type: functional
[4] = test system: Staphylococcus epidermidis; experiment: Antimicrobial activity against Staphylococcus epidermidis ATCC 35984 after 18 hrs by twofold serial broth dilution method; assay type: functional; details: ATCC 35984, 18 h
[5] = test system: Escherichia coli; experiment: Antimicrobial activity against Escherichia coli ATCC 10538 after 18 hrs by twofold serial broth dilution method; assay type: functional; details: ATCC 10538, 18 h
[6] = test system: Escherichia coli; experiment: Antimicrobial activity against Escherichia coli ATCC 25922 after 18 hrs by twofold serial broth dilution method; assay type: functional; details: ATCC 25922, 18 h
[7] = test system: Escherichia coli; experiment: Antimicrobial activity against Escherichia coli NCTC 8196 after 18 hrs by twofold serial broth dilution method; assay type: functional; details: NCTC 8196, 18 h
[8] = test system: Pseudomonas aeruginosa; experiment: Antimicrobial activity against Pseudomonas aeruginosa NCTC 6749 after 18 hrs by twofold serial broth dilution method; assay type: functional; details: NCTC 6749, 18 h
[9] = test system: Pseudomonas aeruginosa; experiment: Antimicrobial activity against Pseudomonas aeruginosa ATCC 27853 after 18 hrs by twofold serial broth dilution method; assay type: functional; details: ATCC 27853, 18 h
[10] = test system: Bacillus anthracis; experiment: Antimicrobial activity against Bacillus anthracis 34F2 after 18 hrs by twofold serial broth dilution method; assay type: functional; details: 34F2, 18 h
[11] = test system: Staphylococcus aureus; experiment: Bactericidal activity against Staphylococcus aureus NCTC 4163 after 24 hrs; assay type: functional; details: NCTC 4163, 24 h, read-out: MBC99.9
[12] = test system: Staphylococcus aureus; experiment: Bactericidal activity against Staphylococcus aureus ATCC 25923 after 24 hrs; assay type: functional; details: ATCC 25923, 24 h, read-out: MBC99.9
[13] = test system: Staphylococcus aureus; experiment: Bactericidal activity against Staphylococcus aureus ATCC 6538 after 24 hrs; assay type: functional; details: ATCC 6538, 24 h, read-out: MBC99.9
[14] = test system: Staphylococcus aureus; experiment: Bactericidal activity against Staphylococcus aureus […] after 24 hrs; assay type: functional; details: read-out: MBC99.9
[15] = test system: Staphylococcus epidermidis; experiment: Bactericidal activity against Staphylococcus epidermidis ATCC 35984 after 24 hrs; assay type: functional; details: ATCC 35984, 24 h, read-out: MBC99.9
[16] = test system: Escherichia coli; experiment: Bactericidal activity against Escherichia coli ATCC 10538 after 24 hrs; assay type: functional; details: ATCC 10538, 24 h, read-out: MBC99.9
[17] = test system: Pseudomonas aeruginosa; experiment: Bactericidal activity against Pseudomonas aeruginosa ATCC 15442 after 24 hrs; assay type: functional; details: ATCC 15442, 24 h, read-out: MBC99.9
[18] = test system: Pseudomonas aeruginosa; experiment: Bactericidal activity against Pseudomonas aeruginosa NCTC 6749 after 24 hrs; assay type: functional; details: NCTC 6749, 24 h, read-out: MBC99.9
[19] = test system: Pseudomonas aeruginosa; experiment: Bactericidal activity against Pseudomonas aeruginosa ATCC 27853 after 24 hrs; assay type: functional; details: ATCC 27853, 24 h, read-out: MBC99.9
[20] = test system: Staphylococcus epidermidis; experiment: Antimicrobial activity against methicillin-resistant Staphylococcus epidermidis isolate 407/10 after 18 hrs by twofold serial broth dilution method; assay type: functional; details: isolate 407/10, 18 h
[21] = test system: Staphylococcus epidermidis; experiment: Antimicrobial activity against methicillin-resistant Staphylococcus epidermidis isolate 409/10 after 18 hrs by twofold serial broth dilution method; assay type: functional; details: isolate 409/10, 18 h
[22] = test system: Staphylococcus epidermidis; experiment: Antimicrobial activity against methicillin-resistant Staphylococcus epidermidis isolate 422/10 after 18 hrs by twofold serial broth dilution method; assay type: functional; details: isolate 422/10, 18 h
[23] = test system: Staphylococcus epidermidis; experiment: Antimicrobial activity against methicillin-resistant Staphylococcus epidermidis isolate 424/10 after 18 hrs by twofold serial broth dilution method; assay type: functional; details: isolate 424/10, 18 h
[24] = test system: Staphylococcus epidermidis; experiment: Antimicrobial activity against methicillin-resistant Staphylococcus epidermidis isolate 454/11 after 18 hrs by twofold serial broth dilution method; assay type: functional; details: isolate 454/11, 18 h
[25] = test system: Staphylococcus epidermidis; experiment: Antimicrobial activity against methicillin-resistant Staphylococcus epidermidis isolate 455/11 after 18 hrs by twofold serial broth dilution method; assay type: functional; details: isolate 455/11, 18 h
[26] = test system: Staphylococcus epidermidis; experiment: Antimicrobial activity against methicillin-resistant Staphylococcus epidermidis isolate 457/11 after 18 hrs by twofold serial broth dilution method; assay type: functional; details: isolate 457/11, 18 h
[27] = test system: Staphylococcus epidermidis; experiment: Antimicrobial activity against methicillin-resistant Staphylococcus epidermidis isolate 458/11 after 18 hrs by twofold serial broth dilution method; assay type: functional; details: isolate 458/11, 18 h
[28] = test system: Staphylococcus epidermidis; experiment: Antimicrobial activity against methicillin-resistant Staphylococcus epidermidis isolate 459/11 after 18 hrs by twofold serial broth dilution method; assay type: functional; details: isolate 459/11, 18 h
[29] = test system: Staphylococcus epidermidis; experiment: Antimicrobial activity against methicillin-resistant Staphylococcus epidermidis isolate 460/11 after 18 hrs by twofold serial broth dilution method; assay type: functional; details: isolate 460/11, 18 h
[30] = test system: Staphylococcus epidermidis; experiment: Antimicrobial activity against methicillin-resistant Staphylococcus epidermidis isolate 469/11 after 18 hrs by twofold serial broth dilution method; assay type: functional; details: isolate 469/11, 18 h
[31] = test system: Staphylococcus epidermidis; experiment: Bactericidal activity against methicillin-resistant Staphylococcus epidermidis isolate 403/10 after 24 hrs; assay type: functional; details: isolate 403/10, 24 h, read-out: MBC99.9
[32] = test system: Staphylococcus epidermidis; experiment: Bactericidal activity against methicillin-resistant Staphylococcus epidermidis isolate 407/10 after 24 hrs; assay type: functional; details: isolate 407/10, 24 h, read-out: MBC99.9
[33] = test system: Staphylococcus epidermidis; experiment: Bactericidal activity against methicillin-resistant Staphylococcus epidermidis isolate 409/10 after 24 hrs; assay type: functional; details: isolate 409/10, 24 h, read-out: MBC99.9
[34] = test system: Staphylococcus epidermidis; experiment: Bactericidal activity against methicillin-resistant Staphylococcus epidermidis isolate 424/10 after 24 hrs; assay type: functional; details: isolate 424/10, 24 h, read-out: MBC99.9
[35] = test system: Staphylococcus epidermidis; experiment: Bactericidal activity against methicillin-resistant Staphylococcus epidermidis isolate 454/11 after 24 hrs; assay type: functional; details: isolate 454/11, 24 h, read-out: MBC99.9
[36] = test system: Staphylococcus epidermidis; experiment: Bactericidal activity against methicillin-resistant Staphylococcus epidermidis isolate 455/11 after 24 hrs; assay type: functional; details: isolate 455/11, 24 h, read-out: MBC99.9
[37] = test system: Staphylococcus epidermidis; experiment: Bactericidal activity against methicillin-resistant Staphylococcus epidermidis isolate 457/11 after 24 hrs; assay type: functional; details: isolate 457/11, 24 h, read-out: MBC99.9
[38] = test system: Staphylococcus epidermidis; experiment: Bactericidal activity against methicillin-resistant Staphylococcus epidermidis isolate 458/11 after 24 hrs; assay type: functional; details: isolate 458/11, 24 h, read-out: MBC99.9
[39] = test system: Staphylococcus epidermidis; experiment: Bactericidal activity against methicillin-resistant Staphylococcus epidermidis isolate 459/11 after 24 hrs; assay type: functional; details: isolate 459/11, 24 h, read-out: MBC99.9
[40] = test system: Staphylococcus epidermidis; experiment: Bactericidal activity against methicillin-resistant Staphylococcus epidermidis isolate 460/11 after 24 hrs; assay type: functional; details: isolate 460/11, 24 h, read-out: MBC99.9
[41] = test system: Staphylococcus epidermidis; experiment: Bactericidal activity against methicillin-resistant Staphylococcus epidermidis isolate 470/11 after 24 hrs; assay type: functional; details: isolate 470/11, 24 h, read-out: MBC99.9
[42] = test system: Bacillus subtilis; experiment: Genotoxicity in rec-positive Bacillus subtilis H17 at 2 ug/9 mm disc after 24 hrs by disc diffusion method; assay type: toxicity, organism-based
[43] = test system: Bacillus subtilis; experiment: Genotoxicity in rec-negative Bacillus subtilis M45 at 2 ug/9 mm disc after 24 hrs by disc diffusion method; assay type: toxicity, organism-based

CC[C@@H](C(=O)[C@@H](C)[C@@H](O)[C@H](C)[C@@H]1O[C@@H]([C@@H](CC)C(=O)N(CCO)CCO)CC[C@@H]1C)[C@H]1O[C@]2(C=C[C@@H](O)[C@]3(CC[C@@](C)([C@H]4CC[C@](O)(CC)[C@H](C)O4)O3)O2)[C@H](C)C[C@@H]1C
MIC [1]: 4 µg/mL (≈ 4.77 µM)
MIC [2]: 4 µg/mL (≈ 4.77 µM)
MIC [3]: 4 µg/mL (≈ 4.77 µM)
MIC [4]: 4 µg/mL (≈ 4.77 µM)
MIC [5]: > 256 µg/mL
MIC [6]: > 256 µg/mL
MIC [7]: > 256 µg/mL
MIC [8]: > 256 µg/mL
MIC [9]: > 256 µg/mL
MIC [10]: 2 µg/mL (≈ 2.39 µM)
MBC [11]: 256 µg/mL (≈ 305 µM)
MBC [12]: 256 µg/mL (≈ 305 µM)
MBC [13]: 256 µg/mL (≈ 305 µM)
MBC [14]: 128 µg/mL (≈ 153 µM)
MBC [15]: 128 µg/mL (≈ 153 µM)
MBC [16]: > 256 µg/mL
MBC [17]: > 256 µg/mL
MBC [18]: > 256 µg/mL
MBC [19]: > 256 µg/mL
MIC [20]: 4 µg/mL (≈ 4.77 µM)
MIC [21]: 8 µg/mL (≈ 9.55 µM)
MIC [22]: 2 µg/mL (≈ 2.39 µM)
MIC [23]: 4 µg/mL (≈ 4.77 µM)
MIC [24]: 2 µg/mL (≈ 2.39 µM)
MIC [25]: 4 µg/mL (≈ 4.77 µM)
MIC [26]: 4 µg/mL (≈ 4.77 µM)
MIC [27]: 4 µg/mL (≈ 4.77 µM)
MIC [28]: 4 µg/mL (≈ 4.77 µM)
MIC [29]: 4 µg/mL (≈ 4.77 µM)
MIC [30]: 4 µg/mL (≈ 4.77 µM)
MBC [31]: 128 µg/mL (≈ 153 µM)
MBC [32]: 128 µg/mL (≈ 153 µM)
MBC [33]: 256 µg/mL (≈ 305 µM)
MBC [34]: 128 µg/mL (≈ 153 µM)
MBC [35]: 128 µg/mL (≈ 153 µM)
MBC [36]: 256 µg/mL (≈ 305 µM)
MBC [37]: 256 µg/mL (≈ 305 µM)
MBC [38]: 128 µg/mL (≈ 153 µM)
MBC [39]: 256 µg/mL (≈ 305 µM)
MBC [40]: 256 µg/mL (≈ 305 µM)
MBC [41]: 256 µg/mL (≈ 305 µM)
diameter of the inhibition zone (DIZ) [42]: 28 mm
diameter of the inhibition zone (DIZ) [43]: 29 mm
